Test results reported in ChEMBL document CHEMBL4507261, “Data for DCP probe A-192621” (2021).

Columns and labels:
[1] = biological target: Serine/threonine-protein kinase NIM1 (Homo sapiens) (UniProt Q8IY84); details: Compound concentration 1000.0 nM
[2] = biological target: BDNF/NT-3 growth factors receptor (Homo sapiens) (UniProt Q16620); details: Compound concentration 1000.0 nM
[3] = biological target: Cyclin-dependent kinase 2 homolog (Plasmodium falciparum (isolate 3D7)) (UniProt P61075); details: Compound concentration 1000.0 nM
[4] = biological target: Dual specificity mitogen-activated protein kinase kinase 2 (Homo sapiens) (UniProt P36507); details: Compound concentration 1000.0 nM
[5] = biological target: Mitogen-activated protein kinase 9 (Homo sapiens) (UniProt P45984); details: Compound concentration 1000.0 nM
[6] = biological target: Receptor-interacting serine/threonine-protein kinase 4 (Homo sapiens) (UniProt P57078); details: Compound concentration 1000.0 nM
[7] = system: Receptor-type tyrosine-protein kinase FLT3 (Homo sapiens), P36888 [D835V]; details: Compound concentration 1000.0 nM
[8] = biological target: Serine/threonine-protein kinase DCLK3 (Homo sapiens) (UniProt Q9C098); details: Compound concentration 1000.0 nM
[9] = biological target: Ribosomal protein S6 kinase alpha-6 (Homo sapiens) (UniProt Q9UK32); details: Compound concentration 1000.0 nM
[10] = biological target: T1, Endothelin-1 receptor (Homo sapiens, UniProt P25101); assay: Eurofins cellular functional assay - Antagonist (EDNRA)
T1 sequence (P25101 whole entry): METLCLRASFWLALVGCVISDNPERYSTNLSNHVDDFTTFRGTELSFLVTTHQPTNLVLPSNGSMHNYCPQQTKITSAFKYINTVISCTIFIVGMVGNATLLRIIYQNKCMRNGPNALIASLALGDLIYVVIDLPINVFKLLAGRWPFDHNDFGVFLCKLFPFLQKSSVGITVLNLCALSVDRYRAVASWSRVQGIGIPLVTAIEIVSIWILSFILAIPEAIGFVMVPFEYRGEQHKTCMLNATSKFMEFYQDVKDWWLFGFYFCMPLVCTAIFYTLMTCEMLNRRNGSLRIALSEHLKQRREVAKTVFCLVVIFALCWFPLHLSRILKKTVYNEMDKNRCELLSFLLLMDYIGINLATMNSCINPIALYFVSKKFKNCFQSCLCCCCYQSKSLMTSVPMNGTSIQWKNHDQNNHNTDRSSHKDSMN

[11] = biological target: Serine/threonine-protein kinase Nek10 (Homo sapiens) (UniProt Q6ZWH5); details: Compound concentration 1000.0 nM
[12] = biological target: BMP-2-inducible protein kinase (Homo sapiens) (UniProt Q9NSY1); details: Compound concentration 1000.0 nM
[13] = biological target: Prostaglandin G/H synthase 1 (Homo sapiens) (UniProt P23219); assay: COX1(h) Eurofins-Cerep enzyme and uptake assay; details: Compound concentration 10.0 uM
[14] = biological target: Serine/threonine-protein kinase tousled-like 2 (Homo sapiens) (UniProt Q86UE8); details: Compound concentration 1000.0 nM
[15] = system: Tyrosine-protein kinase ABL1 (Homo sapiens), P00519 [H396P]; details: Compound concentration 1000.0 nM
[16] = biological target: Citron Rho-interacting kinase (Homo sapiens) (UniProt O14578); details: Compound concentration 1000.0 nM
[17] = biological target: Homeodomain-interacting protein kinase 3 (Homo sapiens) (UniProt Q9H422); details: Compound concentration 1000.0 nM
[18] = biological target: Activin receptor type-1-like (Homo sapiens) (UniProt P37023); details: Compound concentration 1000.0 nM
[19] = biological target: Serine/threonine-protein kinase 38-like (Homo sapiens) (UniProt Q9Y2H1); details: Compound concentration 1000.0 nM
[20] = biological target: Ribosomal protein S6 kinase alpha-6 (Homo sapiens) (UniProt Q9UK32); details: Compound concentration 1000.0 nM; remark: listed apart in the source
[21] = biological target: Cyclin-dependent kinase 8 (Homo sapiens) (UniProt P49336); details: Compound concentration 1000.0 nM
[22] = biological target: 5-hydroxytryptamine receptor 2B (Homo sapiens) (UniProt P41595); assay: 5-HT2B (h) Eurofins-Cerep binding assay; design: ligand concentration 0.2 nM; details: filed as agonist, Compound concentration 10.0 uM
[23] = biological target: Fibroblast growth factor receptor 1 (Homo sapiens) (UniProt P11362); details: Compound concentration 1000.0 nM
[24] = biological target: Cyclin-dependent kinase 2 (Homo sapiens) (UniProt P24941); details: Compound concentration 1000.0 nM
[25] = biological target: Tyrosine-protein kinase JAK2 (Homo sapiens) (UniProt O60674); details: Compound concentration 1000.0 nM
[26] = biological target: Serine/threonine-protein kinase haspin (Homo sapiens) (UniProt Q8TF76); details: Compound concentration 1000.0 nM
[27] = biological target: Endothelin-1 receptor (Homo sapiens) (UniProt P25101); details: filed as agonist, Compound concentration 10.0 uM
[28] = biological target: Serine/threonine-protein kinase RIO2 (Homo sapiens) (UniProt Q9BVS4); details: Compound concentration 1000.0 nM
[29] = biological target: Tyrosine-protein kinase ABL1 (Homo sapiens) (UniProt P00519); details: Compound concentration 1000.0 nM
[30] = biological target: 5-hydroxytryptamine receptor 1B (Homo sapiens) (UniProt P28222); assay: 5-HT1B(h) Eurofins-Cerep binding assay; design: ligand concentration 1 nM; details: filed as antagonist, Compound concentration 10.0 uM
[31] = biological target: Serine/threonine-protein kinase PLK2 (Homo sapiens) (UniProt Q9NYY3); details: Compound concentration 1000.0 nM
[32] = biological target: Serine/threonine-protein kinase MARK2 (Homo sapiens) (UniProt Q7KZI7); details: Compound concentration 1000.0 nM
[33] = biological target: cAMP-dependent protein kinase catalytic subunit alpha (Homo sapiens) (UniProt P17612); details: Compound concentration 1000.0 nM
[34] = biological target: Casein kinase I isoform gamma-1 (Homo sapiens) (UniProt Q9HCP0); details: Compound concentration 1000.0 nM
[35] = biological target: SRSF protein kinase 3 (Homo sapiens) (UniProt Q9UPE1); details: Compound concentration 1000.0 nM
[36] = biological target: Serine/threonine-protein kinase PAK 5 (Homo sapiens) (UniProt Q9P286); details: Compound concentration 1000.0 nM
[37] = biological target: Bone morphogenetic protein receptor type-1A (Homo sapiens) (UniProt P36894); details: Compound concentration 1000.0 nM
[38] = system: Tyrosine-protein kinase ABL1 (Homo sapiens), P00519 [M351T]; details: Compound concentration 1000.0 nM
[39] = biological target: SRSF protein kinase 2 (Homo sapiens) (UniProt P78362); details: Compound concentration 1000.0 nM

Chain of Ribosomal protein S6 kinase alpha-6 (Homo sapiens) (Q9UK32 whole entry): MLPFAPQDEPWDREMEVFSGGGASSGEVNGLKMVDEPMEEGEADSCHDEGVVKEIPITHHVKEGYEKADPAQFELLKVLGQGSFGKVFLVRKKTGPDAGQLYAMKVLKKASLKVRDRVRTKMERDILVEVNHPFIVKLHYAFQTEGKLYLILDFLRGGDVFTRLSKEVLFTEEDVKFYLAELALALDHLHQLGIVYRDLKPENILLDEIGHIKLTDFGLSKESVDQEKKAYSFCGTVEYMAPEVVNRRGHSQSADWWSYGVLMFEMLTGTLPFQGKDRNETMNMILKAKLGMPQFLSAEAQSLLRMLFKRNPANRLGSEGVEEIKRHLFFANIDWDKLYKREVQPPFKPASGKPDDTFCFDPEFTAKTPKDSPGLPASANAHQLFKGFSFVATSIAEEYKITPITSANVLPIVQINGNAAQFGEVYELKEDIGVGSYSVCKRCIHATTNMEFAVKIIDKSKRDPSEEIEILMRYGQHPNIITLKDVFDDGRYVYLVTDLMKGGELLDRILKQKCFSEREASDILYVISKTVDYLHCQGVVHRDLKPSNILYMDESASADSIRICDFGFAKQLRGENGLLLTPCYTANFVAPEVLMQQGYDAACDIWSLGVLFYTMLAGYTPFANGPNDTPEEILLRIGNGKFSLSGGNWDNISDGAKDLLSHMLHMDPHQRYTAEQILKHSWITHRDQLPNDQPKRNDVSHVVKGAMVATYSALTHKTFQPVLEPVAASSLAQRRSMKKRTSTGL
Chain of Fibroblast growth factor receptor 1 (Homo sapiens) (P11362 22-822 limits assumed): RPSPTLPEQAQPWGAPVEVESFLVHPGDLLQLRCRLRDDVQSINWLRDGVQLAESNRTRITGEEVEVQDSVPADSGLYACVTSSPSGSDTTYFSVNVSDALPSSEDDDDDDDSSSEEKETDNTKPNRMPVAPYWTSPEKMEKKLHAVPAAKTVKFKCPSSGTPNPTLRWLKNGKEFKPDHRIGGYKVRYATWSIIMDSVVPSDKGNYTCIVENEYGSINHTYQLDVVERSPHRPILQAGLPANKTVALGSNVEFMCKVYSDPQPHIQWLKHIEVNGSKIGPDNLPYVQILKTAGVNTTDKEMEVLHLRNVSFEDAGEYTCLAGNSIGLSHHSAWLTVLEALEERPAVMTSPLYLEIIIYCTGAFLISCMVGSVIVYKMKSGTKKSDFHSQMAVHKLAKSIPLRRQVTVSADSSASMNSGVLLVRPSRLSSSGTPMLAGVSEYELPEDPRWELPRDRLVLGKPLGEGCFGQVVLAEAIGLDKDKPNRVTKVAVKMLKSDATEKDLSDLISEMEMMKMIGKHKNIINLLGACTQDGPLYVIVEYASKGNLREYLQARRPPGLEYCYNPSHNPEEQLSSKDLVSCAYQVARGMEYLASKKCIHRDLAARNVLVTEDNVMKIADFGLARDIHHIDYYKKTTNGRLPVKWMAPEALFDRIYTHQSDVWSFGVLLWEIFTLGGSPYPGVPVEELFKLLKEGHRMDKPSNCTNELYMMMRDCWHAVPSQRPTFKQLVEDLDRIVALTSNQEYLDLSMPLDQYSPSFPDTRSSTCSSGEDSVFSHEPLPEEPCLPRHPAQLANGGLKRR
Chain of Serine/threonine-protein kinase tousled-like 2 (Homo sapiens) (Q86UE8 whole entry, looked up): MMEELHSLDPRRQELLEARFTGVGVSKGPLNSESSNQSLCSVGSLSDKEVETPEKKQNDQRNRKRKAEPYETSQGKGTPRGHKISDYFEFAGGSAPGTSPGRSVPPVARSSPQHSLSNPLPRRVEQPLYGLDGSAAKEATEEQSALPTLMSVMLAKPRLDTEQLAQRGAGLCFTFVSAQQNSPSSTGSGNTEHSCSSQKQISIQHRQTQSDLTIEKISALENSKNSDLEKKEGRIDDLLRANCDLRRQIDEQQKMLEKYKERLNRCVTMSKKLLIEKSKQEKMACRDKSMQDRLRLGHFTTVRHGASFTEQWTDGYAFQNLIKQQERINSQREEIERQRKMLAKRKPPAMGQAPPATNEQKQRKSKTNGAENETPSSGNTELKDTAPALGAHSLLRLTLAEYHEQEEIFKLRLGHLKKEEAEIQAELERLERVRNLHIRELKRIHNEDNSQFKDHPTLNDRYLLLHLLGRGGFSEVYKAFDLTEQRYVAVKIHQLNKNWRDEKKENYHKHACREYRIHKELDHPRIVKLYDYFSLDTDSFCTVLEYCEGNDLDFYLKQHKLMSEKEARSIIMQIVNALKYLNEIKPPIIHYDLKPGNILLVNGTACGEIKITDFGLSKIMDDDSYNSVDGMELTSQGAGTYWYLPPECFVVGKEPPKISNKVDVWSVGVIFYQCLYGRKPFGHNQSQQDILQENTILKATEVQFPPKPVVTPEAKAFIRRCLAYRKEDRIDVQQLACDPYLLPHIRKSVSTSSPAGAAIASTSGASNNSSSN
Chain of Prostaglandin G/H synthase 1 (Homo sapiens) (P23219 whole entry): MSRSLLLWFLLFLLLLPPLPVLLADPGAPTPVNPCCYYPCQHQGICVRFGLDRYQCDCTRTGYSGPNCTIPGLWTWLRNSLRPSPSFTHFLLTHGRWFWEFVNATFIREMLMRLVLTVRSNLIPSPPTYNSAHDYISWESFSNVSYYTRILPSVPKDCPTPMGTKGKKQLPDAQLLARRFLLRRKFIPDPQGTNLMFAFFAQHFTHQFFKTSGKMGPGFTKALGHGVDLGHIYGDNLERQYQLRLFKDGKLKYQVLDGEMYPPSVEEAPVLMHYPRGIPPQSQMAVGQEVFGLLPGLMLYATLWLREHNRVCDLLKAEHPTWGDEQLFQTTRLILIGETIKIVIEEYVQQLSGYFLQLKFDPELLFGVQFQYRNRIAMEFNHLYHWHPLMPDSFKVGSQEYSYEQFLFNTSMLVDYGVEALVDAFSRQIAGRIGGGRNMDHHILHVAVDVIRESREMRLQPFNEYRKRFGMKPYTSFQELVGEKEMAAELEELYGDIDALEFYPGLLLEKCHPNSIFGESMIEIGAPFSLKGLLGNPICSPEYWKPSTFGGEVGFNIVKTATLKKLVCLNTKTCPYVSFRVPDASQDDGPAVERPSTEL
Chain of Activin receptor type-1-like (Homo sapiens) (P37023 whole entry): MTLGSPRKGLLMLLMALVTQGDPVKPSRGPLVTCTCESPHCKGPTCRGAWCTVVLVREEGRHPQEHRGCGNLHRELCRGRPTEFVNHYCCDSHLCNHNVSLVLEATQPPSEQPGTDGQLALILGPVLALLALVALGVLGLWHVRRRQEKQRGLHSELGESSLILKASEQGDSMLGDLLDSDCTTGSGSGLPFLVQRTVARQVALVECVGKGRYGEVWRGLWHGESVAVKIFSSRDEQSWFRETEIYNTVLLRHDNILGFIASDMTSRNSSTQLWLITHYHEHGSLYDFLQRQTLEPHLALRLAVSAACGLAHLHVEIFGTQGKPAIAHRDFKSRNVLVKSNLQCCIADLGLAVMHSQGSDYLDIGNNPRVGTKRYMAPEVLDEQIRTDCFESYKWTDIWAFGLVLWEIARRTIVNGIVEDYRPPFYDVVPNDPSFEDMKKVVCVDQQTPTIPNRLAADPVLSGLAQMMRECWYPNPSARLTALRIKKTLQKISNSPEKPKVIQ
Chain of BMP-2-inducible protein kinase (Homo sapiens) (Q9NSY1 whole entry, looked up): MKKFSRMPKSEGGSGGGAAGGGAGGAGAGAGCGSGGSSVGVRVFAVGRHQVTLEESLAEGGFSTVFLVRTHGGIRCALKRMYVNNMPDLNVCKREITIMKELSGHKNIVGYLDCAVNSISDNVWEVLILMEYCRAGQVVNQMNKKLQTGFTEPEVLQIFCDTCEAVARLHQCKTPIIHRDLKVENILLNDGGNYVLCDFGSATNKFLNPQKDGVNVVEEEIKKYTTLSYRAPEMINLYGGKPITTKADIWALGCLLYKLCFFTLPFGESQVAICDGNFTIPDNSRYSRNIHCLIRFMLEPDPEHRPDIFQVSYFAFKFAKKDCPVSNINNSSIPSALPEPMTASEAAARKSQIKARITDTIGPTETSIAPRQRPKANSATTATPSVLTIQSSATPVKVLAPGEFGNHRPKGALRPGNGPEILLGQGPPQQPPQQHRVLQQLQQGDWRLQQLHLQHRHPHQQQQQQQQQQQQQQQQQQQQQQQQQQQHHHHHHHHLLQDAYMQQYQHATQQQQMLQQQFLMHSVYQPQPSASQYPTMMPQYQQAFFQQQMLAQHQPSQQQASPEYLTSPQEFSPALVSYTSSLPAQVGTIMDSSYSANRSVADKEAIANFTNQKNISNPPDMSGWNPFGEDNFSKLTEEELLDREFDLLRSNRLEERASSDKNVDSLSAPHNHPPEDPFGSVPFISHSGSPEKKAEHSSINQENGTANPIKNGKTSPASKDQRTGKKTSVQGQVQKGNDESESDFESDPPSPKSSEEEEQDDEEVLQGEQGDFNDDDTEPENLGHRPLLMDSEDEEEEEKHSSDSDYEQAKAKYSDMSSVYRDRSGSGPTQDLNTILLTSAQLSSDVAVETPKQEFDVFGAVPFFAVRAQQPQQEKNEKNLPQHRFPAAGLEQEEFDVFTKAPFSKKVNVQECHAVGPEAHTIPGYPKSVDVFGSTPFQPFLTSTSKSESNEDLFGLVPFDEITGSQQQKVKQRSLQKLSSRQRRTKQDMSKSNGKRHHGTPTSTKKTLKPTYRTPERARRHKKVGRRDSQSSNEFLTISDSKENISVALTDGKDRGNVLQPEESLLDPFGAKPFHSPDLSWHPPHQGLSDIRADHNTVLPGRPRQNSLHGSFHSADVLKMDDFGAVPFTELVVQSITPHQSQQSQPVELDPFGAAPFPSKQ
Chain of Dual specificity mitogen-activated protein kinase kinase 2 (Homo sapiens) (P36507 whole entry): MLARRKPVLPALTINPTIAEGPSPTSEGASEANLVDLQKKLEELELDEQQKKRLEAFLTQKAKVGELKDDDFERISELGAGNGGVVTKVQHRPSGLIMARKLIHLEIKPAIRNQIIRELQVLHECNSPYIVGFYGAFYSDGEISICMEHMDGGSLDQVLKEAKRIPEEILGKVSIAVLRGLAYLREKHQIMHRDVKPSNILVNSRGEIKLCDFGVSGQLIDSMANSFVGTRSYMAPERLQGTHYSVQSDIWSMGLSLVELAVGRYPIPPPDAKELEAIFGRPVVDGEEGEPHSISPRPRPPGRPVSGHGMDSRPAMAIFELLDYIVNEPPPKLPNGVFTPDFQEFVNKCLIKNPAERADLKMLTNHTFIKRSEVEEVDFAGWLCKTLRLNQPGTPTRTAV

CCCOc1ccc([C@@H]2[C@@H](C(=O)O)[C@H](c3ccc4c(c3)OCO4)CN2CC(=O)Nc2c(CC)cccc2CC)cc1 [A-1806262]
residual activity [1]: 81%
residual activity [2]: 100%
residual activity [3]: 97%
residual activity [4]: 89%
residual activity [5]: 80%
residual activity [6]: 100%
residual activity [7]: 62%
residual activity [8]: 100%
residual activity [9]: 91%
IC50 [10]: 1600 nM (not active)
residual activity [11]: 96%
residual activity [12]: 92%
% Inhibition of Control Values (Mean n=2) [13]: 2.3%
residual activity [14]: 100%
residual activity [15]: 90%
residual activity [16]: 98%
residual activity [17]: 85%
residual activity [18]: 100%
residual activity [19]: 100%
residual activity [20]: 76%
residual activity [21]: 86%
% Inhibition of Control Specific Binding (Mean n=2) [22]: -16.5%
residual activity [23]: 100%
residual activity [24]: 87%
residual activity [25]: 79%
residual activity [26]: 99%
% Inhibition of Control Specific Binding (Mean n=2) [27]: 63.7%
residual activity [28]: 98%
residual activity [29]: 88%
% Inhibition of Control Specific Binding (Mean n=2) [30]: 13.4%
residual activity [31]: 86%
residual activity [32]: 92%
residual activity [33]: 100%
residual activity [34]: 97%
residual activity [35]: 93%
residual activity [36]: 88%
residual activity [37]: 89%
residual activity [38]: 80%
residual activity [39]: 100%

CCCOc1ccc([C@H]2[C@H](C(=O)O)[C@@H](c3ccc4c(c3)OCO4)CN2CC(=O)Nc2c(CC)cccc2CC)cc1 [A-192621]
residual activity [1]: 78%
residual activity [2]: 85%
residual activity [3]: 87%
residual activity [4]: 62%
residual activity [5]: 65%
residual activity [6]: 69%
residual activity [7]: 88%
residual activity [8]: 100%
residual activity [9]: 78%
IC50 [10]: 3600 nM (not active)
residual activity [11]: 82%
residual activity [12]: 87%
% Inhibition of Control Values (Mean n=2) [13]: 13.2%
residual activity [14]: 94%
residual activity [15]: 81%
residual activity [16]: 83%
residual activity [17]: 74%
residual activity [18]: 99%
residual activity [19]: 88%
residual activity [20]: 77%
residual activity [21]: 76%
% Inhibition of Control Specific Binding (Mean n=2) [22]: -1.9%
residual activity [23]: 100%
residual activity [24]: 87%
residual activity [25]: 53%
residual activity [26]: 62%
% Inhibition of Control Specific Binding (Mean n=2) [27]: 97.1%
residual activity [28]: 71%
residual activity [29]: 70%
% Inhibition of Control Specific Binding (Mean n=2) [30]: 12.3%
residual activity [31]: 79%
residual activity [32]: 88%
residual activity [33]: 100%
residual activity [34]: 100%
residual activity [35]: 100%
residual activity [36]: 73%
residual activity [37]: 100%
residual activity [38]: 69%
residual activity [39]: 96%
